# Test results reported in US12336977B2, “Nitenin analogue compounds and their use in the treatment of chronic and acute pain” (SEA4US-BIOTECNOLOGIA E RECURSOS MARINHOS, LDA., priority 2019, dated 2025).
# Test system: voltage-activated Na+ currents of sdDRGns
# Experiment: whole-cell voltage-clamp of voltage activated Na+ currents in sdDRGns
# Type: cell-based, rat
# Settings: 0.1 μg/ml, 0.29 μM (FIG. 1.b)
# Protocol: FIG. 1 illustrates the effect of nitenin (0.1 μg/ml) on voltage activated currents recorded from small diameter Dorsal Root Ganglia neurons (sdDRGns) • a) In sdDRGns, voltage-activated outward potassium (K^+) currents were evoked by a depolarizing step to +20 mV (holding potential of −70 mV) preceded by a hyperpolarizing pre-pulse to −120 mV. […] Typical voltage activated K^+ current traces recorded before and in the presence of nitenin (0.1 μg/ml); lower trace corresponding to the current subtraction, fit with a single-exponential function (time constant τ˜150 ms). ii.
# For the electrophysiological recordings of the ex vivo material, voltage-clamp recordings were performed on neurons isolated from rat DRGs (and TGs). Recordings were performed from the soma that often contained the proximal fraction of axon, 1 hour after the end of the cell isolation process (includes enzymatic and mechanical treatment).
smiles,measurement,setting,value
C/C(=C\C1C/C(=C/CCc2ccoc2)C(=O)O1)CCCc1ccoc1 (centres unmarked) [nitenin],effect on voltage activated Na+ currents,,absence of effect
same,effect on voltage activated Na+ currents,listed as Nitenin,not being able to induce relevant changes
